Experimental data: patent publication US12509429B2, “Hydroxybenzamide derivatives and methods of use in treating diabetes” (THE BOARD OF REGENTS OF THE UNIVERSITY OF OKLAHOMA, priority 2022, dated 2025)
Entries after “also recorded” stand apart in the source; their conditions may differ.

Columns and labels:
Type in all cases: cell-based, rat
[1] = test system: INS-1 cells; assay: Cell viability assay: protection of INS-1 cells from tunicamycin (Tm)-induced loss of viability (CellTiter-Glo, intracellular ATP); conditions: Rattus norvegicus, INS1
Protocol: INS-1 cells were resuspended in RPMI 1640 medium containing 10% FBS and seeded at 5×10^3 cells/well in a 384-well plate. After overnight 24 h incubation, compounds were added to the wells at the indicated concentration using a pin-transfer robot (PerkinElmer). Tm in RPMI 1640 medium containing 10% FBS was then added at a final concentration of 0.15 μg/mL. After 72 h, the medium was removed and 20 μL of CellTiter-Glo reagent (Promega) was added. Luminescence was measured 10 min later using a Synergy Neo2 plate reader (Biotek).
Hydroxy benzamide (HBA) derivatives were synthesized based on various scaffolds and evaluated for their viability of rat INS-1 β cells in the presence of tunicamycin (Tm), a potent ER stress inducer that inhibits N-linked glycosylation of proteins. The maximum activities and the concentrations that reach half-maximal activity (EC50) of the compounds were evaluated by the degree of increase in viability of INS-1 cells co-treated with the compounds in the presence of Tm compared with Tm treatment alone.

[2] = test system: INS-1 β cells; assay: Western blotting of cleaved caspase-3 and PARP (Tm-induced apoptosis); conditions: INS-1 cells, Tm 0.3 μg/ml, 24 h, co-treatment at 1 and 5 μM, Western blot
Protocol: INS-1 cells were treated with or without Tm (0.3 μg/ml) in the presence of WO3i at indicated concentrations or DMSO for indicated times. Cleaved caspase-3 and PARP were determined by Western blotting. GADPH was used as a loading control. The data shown are representative of 3 independent experiments.
INS-1 cells cultured in 60-mm dishes were washed with PBS and lysed with lysis buffer (Cell Signaling Technology, Danvers, MA) containing protease and phosphatase inhibitors (Thermo). Aliquots of 20 μg total protein were separated on 10% SDS-PAGE gels (Life Technologies) and transferred to PVDF membranes (Life Technologies). The membranes were probed with primary antibodies followed by the appropriate HRP-conjugated secondary antibodies. Blots were then developed using Pierce ECL Western Blotting Substrate (cat no 32106). The primary antibodies and dilutions used were: cleaved caspase 3 (1:1000, 9661, Cell Signaling Technology, MA, USA), and PARP (1:1000, 9542L, Cell Signaling Technology), and GAPDH (1:1000, SC-32233, Santa Cruz Biotechnology). Secondary antibodies used: goat anti rabbit IgG and goat anti-mouse IgG, 1:5000; Santa Cruz Biotechnology, Santa Cruz, CA).
To determine whether the increase in cell viability following treatment with WO3i was caused by a suppression of apoptotic cell death, levels of cleaved caspase-3 and cleaved PARP were assessed by Western blotting. […] However, upon severe ER stress, caspase 3 undergoes proteolytic cleavage to form the active enzyme, which in turns cleaves PARP, to trigger apoptotic cell death.

[3] = test system: INS-1 β cells; assay: Live-cell phase-contrast images of INS-1 cells under ER stress; conditions: Tm 0.5 μg/mL, compound 5 μM, 24 h, phase-contrast/bright field
Protocol: INS-1 cells were treated with or without Tm (0.5 μg/mL) in the presence of WO3i (5 μM) or DMSO (0.1%) for 24 h, and live-cell phase-contrast images were acquired (magnification 10×).

[4] = test system: CHOP mRNA; assay: qRT-PCR of Tm-induced CHOP mRNA expression in INS-1 cells; conditions: compound 5 μM, Tm 0.5 μg/ml, 4 h and 8 h, normalized to cyclophilin A, listed as WO3i
Protocol: CHOP mRNA levels by qRT-PCR in INS-1 cells treated for 4 h (A) and 8 h (B) with WO3i at 5 μM in the presence or absence of Tm (0.5 μg/ml). Data are presented as the fold change after normalized to cyclophilin A mRNA.
(§1) Total RNA was extracted from INS-1 cells using TRIzol reagent (Invitrogen, Carlsbad, CA) according to the manufacturer's protocol. 2 μg of total RNA was reverse transcribed using Superscript IV kit (Invitrogen). Real-time PCR was performed with a CFX96 Real-Time PCR detection system (Bio-Rad, CA) using SYBR Select Master Mix (Applied Biosystems, CA).
(§2) Relative mRNA levels were normalized against Cyclophilin A and were determined by ΔΔCt calculated from the difference in ΔCt values between the target gene and Cyclophilin A with and without treatment, based on comparative CT (cycle threshold) method.

[5] = test system: ATF6 activation (BiP mRNA); assay: qRT-PCR of BiP mRNA (Tm-induced ATF6 activation) in INS-1 cells; conditions: compound 5 μM, Tm 0.5 μg/ml, 4 h and 8 h, normalized to cyclophilin A, listed as WO3i
Protocol: BiP mRNA levels by qRT-PCR in INS-1 cells treated for 4 h (A) and 8 h (B) with WO3i at 5 μM in the presence or absence of Tm (0.5 μg/ml). Data are presented as the fold change after normalized to cyclophilin A mRNA.
as §1, §2

[6] = test system: IRE1α activation (Xbp1-s mRNA); assay: qRT-PCR of spliced Xbp1 mRNA (Tm-induced IRE1α activation) in INS-1 cells; conditions: compound 5 μM, Tm 0.5 μg/ml, 4 h and 8 h, normalized to cyclophilin A, listed as WO3i
Protocol: Spliced Xbp1 (Xbp1-s) mRNA levels by qRT-PCR in INS-1 cells treated for 4 h (A) and 8 h (B) with WO3i at 5 μM in the presence or absence of Tm (0.5 μg/ml). Data are presented as the fold change after normalized to cyclophilin A mRNA.
as §1, §2

[7] = test system: PERK activation (ATF4 mRNA); assay: qRT-PCR of ATF4 mRNA (Tm-induced PERK activation) in INS-1 cells; conditions: compound 5 μM, Tm 0.5 μg/ml, 4 h and 8 h, normalized to cyclophilin A, listed as WO3i
Protocol: ATF4 mRNA levels by qRT-PCR in INS-1 cells treated for 4 h (A) and 8 h (B) with WO3i at 5 μM in the presence or absence of Tm (0.5 μg/ml). Data are presented as the fold change after normalized to cyclophilin A mRNA.
as §1, §2

## O=C(NCc1ccc(C(F)(F)F)cc1)c1cccc(O)c1 [Compound 3i, 3-Hydroxy-N-(4-(trifluoromethyl)benzyl)benzamide]
[1]; % rescue from Tm (0.15 μg/mL)-induced reduction of INS-1 cell viability (intracellular ATP), Tm alone 0%, DMSO without Tm 100%, 72 h, read-out: Maximum % of Protection
  Emax: 100%
[1]; INS-1 cell viability, Tm 0.15 μg/mL, ten 2-fold serial titration points, GraphPad Prism
  EC50: 0.19 µM
[2]
  Tm-induced apoptosis: cleavage of caspase-3 and PARP: suppresses
[2]; listed as WO3
  Tm-induced apoptosis: cleavage of caspase-3 and PARP: almost completely abolished
[2]; listed as WO3M
  Tm-induced apoptosis: cleavage of caspase-3 and PARP: suppresses
[2]; listed as WO3i
  Tm-induced apoptosis: cleavage of caspase-3 and PARP: suppresses
[3]; listed as WO3M
  Preservation of INS-1 β cell viability under ER stress (images): significantly more cells were preserved
[3]; listed as WO3i
  Preservation of INS-1 β cell viability under ER stress (images): preserves the INS-1 β cell viability
[4]
  Tm-induced CHOP mRNA expression: markedly diminished; also recorded: suppresses
[5]
  Tm-induced BiP mRNA level (ATF6 activation): completely suppressed; also recorded: suppresses
[6]
  Tm-induced spliced Xbp1 (Xbp1-s) mRNA level (IRE1α activation): eliminated; also recorded: suppresses
[7]
  Tm-induced ATF4 mRNA level (PERK activation): abolished; also recorded: suppresses
